{"source": "paper PMC11988454", "about": "“Discovery of synthetic small molecules targeting the central regulator of Salmonella pathogenicity” (Science Advances, 2025)", "key": {"[1]": {"tested_on": "SPI-4 encoded T1SS (SiiE)", "assay": "SiiE-HiBiT cell surface retention assay", "type": "cell-based, S. Typhimurium", "protocol": "HiBiT was inserted chromosomally into SiiE at position K5411, using the suicide plasmid pMIB8021 (pSB890-siiE::K5411HiBiT). Bacteria were grown for 5 hours under SPI-4–inducing conditions (LB supplemented with 0.3 M NaCl). OD units of 0.5 were harvested at 10,000g for 2 min at 4°C. Cell pellets were washed twice with cold PBS and then resuspended to a final concentration of 0.5 OD units. Twenty-five microliters from the bacterial suspension was transferred into a 384-well plate. The Nano-Glo HiBiT Extracellular Buffer and corresponding substrate were prepared according to the manufacturer’s instructions. Twenty-five microliters of the Nano-Glo HiBiT Extracellular buffer-substrate mix was added to each sample and then incubated at r.t. for 10 min. Luminescence was measured with a Tecan Spark microplate reader."}, "[2]": {"tested_on": "male ICR mice", "assay": "Maximum tolerated dose (MTD) experiment, oral", "protocol": "C26 was formulated in 5% Tween 20 (v/v), 50% lecithin (from soy bean: 40 mg in 800 μl of distilled water), and 45% PBS at 0.6, 2, and 6 mg/ml for oral administration. A dosing volume of 5 ml/kg was applied. C26 was administered orally to groups of three male Institute of Cancer Research (ICR) mice (23 ± 3 g) at an initiating dose of 3 mg/kg in an MTD setup. The animals received an initial dose of 3 mg/kg. If the animals survived for 72 hours, the group (10 mg/kg) was tested. If the animals survived for 72 additional hours, the group (30 mg/kg) was tested. Experiments were performed by Pharmacology Discovery Services Taiwan Ltd., in general accordance with the “Guide for the Care and Use of Laboratory Animals: Eighth Edition” (National Academies Press, Washington, DC, 2011). The animal care and protocol were reviewed and approved by the Institutional Animal Care and Use Committee (IACUC) at Pharmacology Discovery Services Taiwan Ltd."}, "[3]": {"tested_on": "S. Typhimurium invasion of HeLa cells", "assay": "Invasion assay into HeLa cells", "type": "cell-based", "conditions": "C26 100 μM, MOI 20", "protocol": "In a white 24-well plate (NUNC), 10^5 HeLa cells were seeded in 350 μl of DMEM (Gibco), 24 hours before the infection. Bacteria were grown in LB supplemented with 0.3 M NaCl and either compound at different concentrations or 1% (v/v) DMSO, at 37°C with shaking at 180 rpm until an OD600 of 0.9 was reached. Bacteria were then pelleted and washed twice with HBSS. The bacterial suspension was diluted to obtain an MOI of 20 to infect HeLa cells. The plate was centrifuged for 5 min at 300g to synchronize the infection and then incubated for 25 min at 37°C and 5% (v/v) CO2 to allow Salmonella invasion into HeLa cells. To quantify the invasiveness, the cells were first washed three times with 500 μl of prewarmed PBS. The remaining extracellular bacteria were killed with 500 μl of DMEM supplemented with gentamicin (100 μg/ml). HeLa cells were incubated for 1 hour and then washed three times with prewarmed PBS and lysed with 500 μl of 0.5% (v/v) SDS in PBS for 5 min at 37°C on a shaking platform. The lysate was serial diluted in PBS-T [PBS with 0.05% (v/v) Tween 20] to determine the colony-forming units (CFUs) by plating on LB medium supplemented with streptomycin (50 μg/ml)."}, "[4]": {"target": "T1, HilD (Salmonella typhimurium, UniProt P0CL08)", "T1 construct": "His6-SUMO (N, cleaved yes); made in house; host or cells: E. coli C41(DE3)", "assay": "nanoDSF thermal stability, HilD", "type": "binding, S. Typhimurium", "protocol": "Thermal stability of proteins was determined using nanoDSF, with runs performed on a Prometheus NT.48 (NanoTemper Technologies). A twofold serial dilution series of C26 was prepared in DMSO. C26 was added to HilD or HilC (5 μM) in SEC buffer, giving a final DMSO concentration of 1% (v/v). Samples were incubated for >20 min at r.t. and centrifuged for 2 min prior to loading of standard capillaries (no. PR-C002). Samples were heated from 20° to 80°C with a temperature gradient of 0.5°C min^−1. Melting temperatures were calculated from changes in the fluorescence ratio (350/330 nm), using PR.Stability Analysis v1.0.3 and a temperature range of 40° to 70°C for curve fitting. Data analysis was performed using Prism 8.4 (GraphPad). The change in HilD melting temperature, Tm, was fitted as a function of ligand concentration, using Eqs. 1 and 2 to yield apparent affinity (Kd,app) values Tm{[L]0}=Tm,lower+(Tm,upper−Tm,lower)*(1−α{[L]0}) (1) α{[L]0}=[P]t−Kd−[L]t+{[P]t+[L]t+Kd,app}^2−{4[P]t[L]t}/2[P]t (2) where [P]t and [L]t are the total protein and ligand concentrations, respectively."}, "[5]": {"tested_on": "HilD mutants", "assay": "EMSA, binding of HilD mutants to PhilA", "type": "biochemical, S. Typhimurium", "conditions": "600 nM protein", "procedure": "(F) EMSAs showing the binding of 600 nM HilDWT, HilDL45A, HilDY46A, HilDI100A, and HilDY212A to PhilA, upon incubation with the indicated concentrations of C26.\nEMSAs were performed similarly to as described previously ([39]) using a 62–base pair double-stranded (dsDNA) fragment of the hilA promoter, encompassing the A1 binding site ([82]). dsDNA fragments were generated by melting the complementary primers PhilA_A1_f / PhilA_A1_r (table S10) together in TE buffer [10 mM Tris (pH 8.0) and 1 mM EDTA] at 95°C for 10 min before slowly cooling to r.t. The forward primer was modified with a 5′-Cy5 fluorescent dye for detection. The protein (600 nM) was incubated with 50 nM labeled DNA in EMSA buffer [20 mM Tris (pH 8.0), 100 mM KCl, 100 μM EDTA, and 3% glycerol]. C26 was diluted first in DMSO and subsequently 1:100 into the protein-DNA sample. Samples were incubated at 37°C for 15 min, supplemented with diluted DNA loading dye, and separated on a 1.5-mm-thick, 6% (w/v) TBE polyacrylamide gel at 6°C at a constant voltage of 100 V. Gels were imaged using a ChemiDocMP imaging system (Bio-Rad)."}, "[6]": {"target": "T2, HilD mutants (Salmonella typhimurium, UniProt P0CL08, I100A)", "T2 construct": "His6-SUMO (N, cleaved yes); made in house; host or cells: E. coli C41(DE3)", "T2 sequence (P0CL08 whole entry I100A)": "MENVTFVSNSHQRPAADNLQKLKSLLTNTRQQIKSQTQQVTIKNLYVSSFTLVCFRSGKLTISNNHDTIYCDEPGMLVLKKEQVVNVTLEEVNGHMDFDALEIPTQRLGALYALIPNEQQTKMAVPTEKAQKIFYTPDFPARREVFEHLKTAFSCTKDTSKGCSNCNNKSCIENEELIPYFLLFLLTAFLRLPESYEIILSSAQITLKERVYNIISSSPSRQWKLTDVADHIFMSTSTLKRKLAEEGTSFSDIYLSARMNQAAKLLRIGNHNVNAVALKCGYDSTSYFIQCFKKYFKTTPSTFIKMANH", "assay": "EMSA, binding of HilD mutants to PhilA", "type": "biochemical, S. Typhimurium", "conditions": "600 nM protein"}, "[7]": {"tested_on": "HilD mutants", "assay": "Alanine scan, plasmid-based whole-cell PhilA activation assay", "set-up": "species or system S. Typhimurium", "conditions": "C26 100 μM", "protocol": "A plasmid-based assay in a ΔSPI-1 background strain was developed to facilitate the introduction of point mutations in hilD. The Rha cassette (rhaS, rhaR, and Prha) was first deleted from the pT10 backbone ([67]). The fragment PhilD-hilD-PhilA-sfGFP was then inserted upstream of the terminator rrnB. hilD was then deleted from the resulting plasmid to serve as a negative control. Site-directed mutagenesis was performed using KOD polymerase (Novagen). The cell-based fluorescence assay was performed as described above. Statistical analysis was performed by applying a first Bonferroni’s multiple comparisons test to compare treated and untreated conditions within each strain (shown in Fig. 4E) and a second same test to compare the treated mutants to the treated WT condition. The absence of significance in both tests corresponds to mutations inactivating HilD. Significance in the first but not the second test corresponds to a phenotype similar to that of the WT."}}, "data": [{"smiles": "CN(CC(=O)NCc1ccc2c(c1)OCO2)Cc1ccc(Br)s1", "note": "[C26, N-(benzo[d][1,3]dioxol-5-ylmethyl)-2-{[(5-bromothiophen-2-yl)methyl](methyl)amino}acetamide]", "values": [{"measurement": "SiiE-HiBiT retained on the bacterial cell surface", "setting": "[1]", "result": "reduced in a dose-dependent manner"}, {"measurement": "Toxicity (death / test)", "setting": "[2]; PO 3 mg/kg, 1 h", "result": "0/3"}, {"measurement": "Toxicity (death / test)", "setting": "[2]; PO 3 mg/kg, 2 h", "result": "0/3"}, {"measurement": "Toxicity (death / test)", "setting": "[2]; PO 3 mg/kg, 24 h", "result": "0/3"}, {"measurement": "Toxicity (death / test)", "setting": "[2]; PO 3 mg/kg, 48 h", "result": "0/3"}, {"measurement": "Toxicity (death / test)", "setting": "[2]; PO 3 mg/kg, 72 h", "result": "0/3"}, {"measurement": "Toxicity (death / test)", "setting": "[2]; PO 10 mg/kg, 1 h", "result": "0/3"}, {"measurement": "Toxicity (death / test)", "setting": "[2]; PO 10 mg/kg, 2 h", "result": "0/3"}, {"measurement": "Toxicity (death / test)", "setting": "[2]; PO 10 mg/kg, 24 h", "result": "0/3"}, {"measurement": "Toxicity (death / test)", "setting": "[2]; PO 10 mg/kg, 48 h", "result": "0/3"}, {"measurement": "Toxicity (death / test)", "setting": "[2]; PO 10 mg/kg, 72 h", "result": "0/3"}, {"measurement": "Toxicity (death / test)", "setting": "[2]; PO 30 mg/kg, 1 h", "result": "0/3"}, {"measurement": "Toxicity (death / test)", "setting": "[2]; PO 30 mg/kg, 2 h", "result": "0/3"}, {"measurement": "Toxicity (death / test)", "setting": "[2]; PO 30 mg/kg, 24 h", "result": "0/3"}, {"measurement": "Toxicity (death / test)", "setting": "[2]; PO 30 mg/kg, 48 h", "result": "0/3"}, {"measurement": "Toxicity (death / test)", "setting": "[2]; PO 30 mg/kg, 72 h", "result": "0/3"}, {"measurement": "abnormalities at termination", "setting": "[2]; mouse, in vivo", "result": "no notable abnormalities"}, {"measurement": "Body weight (g) 72 h", "setting": "[2]; mouse, in vivo, po, 3 mg/kg", "result": 29, "unit": "g"}, {"measurement": "Body weight (g) Pre-dose", "setting": "[2]; mouse, in vivo, po, 10 mg/kg", "result": 25, "unit": "g"}, {"measurement": "mortality and adverse effects", "setting": "[2]; oral 3, 10 and 30 mg/kg, mice", "result": "Neither mortality nor notable adverse effects"}, {"measurement": "invasiveness of HilDY46A mutant into HeLa cells", "setting": "[3]", "result": "unaffected"}, {"measurement": "Invasion of HeLa cells (%), of the original inoculum", "setting": "[3]; DMSO control 11.75", "result": 3.5, "unit": "%"}, {"measurement": "Kd", "setting": "[4]", "result": 30.2, "unit": "µM"}, {"measurement": "DNA binding ability of HilDL45A, HilDY46A, HilDY212A", "setting": "[5]", "result": "did not exert any effect"}, {"measurement": "HilDI100A binding to PhilA", "setting": "[6]", "result": "hindered"}, {"measurement": "sensitivity of HilD I42A, I100A, N260A, K264A to C26", "setting": "[7]", "result": "partial loss of sensitivity"}, {"measurement": "sensitivity of HilD L45A, Y46A, F98A, E102A, Y212A to C26", "setting": "[7]", "result": "full loss of sensitivity"}]}]}
